Structures can show the parent of a compound that is named as a salt.
biological target: T1, human NK3 receptor (Homo sapiens, UniProt P29371); assay: [3H]SR142801 competition binding assay; settings: not given
T1 construct: expressed in transfected cells; host or cells: HEK293 cells, transiently transfected; membranes
T1 sequence (P29371 1-465): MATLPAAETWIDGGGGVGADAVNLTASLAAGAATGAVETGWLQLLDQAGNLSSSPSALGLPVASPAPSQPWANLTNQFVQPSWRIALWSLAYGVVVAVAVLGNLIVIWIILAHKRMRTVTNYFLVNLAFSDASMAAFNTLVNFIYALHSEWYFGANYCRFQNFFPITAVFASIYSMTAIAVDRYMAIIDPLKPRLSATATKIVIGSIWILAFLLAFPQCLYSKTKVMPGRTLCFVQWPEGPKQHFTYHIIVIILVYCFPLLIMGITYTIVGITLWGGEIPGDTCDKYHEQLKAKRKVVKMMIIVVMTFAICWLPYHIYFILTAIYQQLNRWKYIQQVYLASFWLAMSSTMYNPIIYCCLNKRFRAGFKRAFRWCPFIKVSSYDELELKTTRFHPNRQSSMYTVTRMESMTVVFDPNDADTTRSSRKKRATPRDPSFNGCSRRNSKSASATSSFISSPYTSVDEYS
Protocol: [^3H]SR142801 Competition Binding Assay
hNK3 receptor binding experiment were performed using [^3H]SR142801 (Catalog No. TRK1035, specific activity: 74.0 Ci/mmol, Amersham, GE Healthcare UK limited, Buckinghamshire, UK) and membrane isolated from HEK293 cells transiently expressing recombinant human NK3 receptor. After thawing, the membrane homogenates were centrifuged at 48,000×g for 10 min at 4° C., the pellets were resuspended in the 50 mM Tris-HCl, 4 mM MnCl2, 1 μM phosphoramidon, 0.1% BSA binding buffer at pH 7.4 to a final assay concentration of 5 μg protein/well. For inhibition experiments, membranes were incubated with [^3H]SR142801 at a concentration equal to KD value of radioligand and 10 concentrations of the inhibitory compound (0.0003-10 μM) (in a total reaction volume of 500 μl) for 75 min at room temperature (RT). At the end of the incubation, membranes were filtered onto unitfilter (96-well white microplate with bonded GF/C filter preincubated 1 h in 0.3% PEI+0.3% BSA, Packard BioScience, Meriden, Conn.) with a Filtermate 196 harvester (Packard BioScience) and washed 4 times with ice-cold 50 mM Tris-HCl, pH 7.4 buffer. Nonspecific binding was measured in the presence of 10 μM SB222200 for both radioligands. The radioactivity on the filter was counted (5 min) on a Packard Top-count microplate scintillation counter with quenching correction after addition of 45 μl of microscint 40 (Canberra Packard S.A., Zürich, Switzerland) and shaking for 1 h. Inhibition curves were fitted according to the Hill equation: y=100/(1+(x/IC50)^nH), where nH=slope factor using Excel-fit 4 software (Microsoft). IC50 values were derived from the inhibition curve and the affinity constant (Ki) values were calculated using the Cheng-Prussoff equation Ki=IC50/(1+[L]/KD) where [L] is the concentration of radioligand and KD is its dissociation constant at the receptor, derived from the saturation isotherm. All experiments were performed in duplicate and the mean±standard error (SEM) of the individual Ki values was calculated.

| Structure (SMILES) | Ki [nM] |
| --- | --- |
| CCCCN(C)C(=O)C(CCN1CCC2(CC1)OC(=O)Nc1ccc(F)cc12)c1ccc(Cl)c(Cl)c1 (centres unmarked) [Example 14, N-butyl-2-(3,4-dichlorophenyl)-4-(6-fluoro-2-oxo-1,2-dihydro-1′H-spiro[3,1-benzoxazine-4,4′-piperidin]-1′-yl)-N-methylbutanamide] | 90.8 |
| CN1C(=O)OC2(CCN(CCC(C(=O)N3CCc4ccc(F)cc4C3)c3ccc(Cl)c(Cl)c3)CC2)c2cc(F)ccc21 (centres unmarked) [Example 38, 1′-[3-(3,4-dichlorophenyl)-4-(7-fluoro-3,4-dihydroisoquinolin-2(1H)-yl)-4-oxobutyl]-6-fluoro-1-methylspiro[3,1-benzoxazine-4,4′-piperidin]-2(1H)-one] | 48.7 |

same assay, conditions: [3H]SR142801 displacement, membranes of HEK293 cells transiently expressing recombinant human NK3 receptor; read-out: hNK3 Ki

| Structure (SMILES) | Ki [nM] |
| --- | --- |
| Cc1ccc(CNC(=O)C(CCN2CCC3(CC2)OC(=O)Nc2ccc(F)cc23)c2ccc(Cl)c(Cl)c2)o1 (centres unmarked) [Example 9, 2-(3,4-dichlorophenyl)-4-(6-fluoro-2-oxo-1,2-dihydro-1′H-spiro[3,1-benzoxazine-4,4′-piperidin]-1′-yl)-N-[(5-methyl-2-furyl)methyl]butanamide] | 91.4 |

same assay, conditions: hNK3 Ki, [3H]SR142801 displacement, membranes of HEK293 cells transiently expressing recombinant human NK3 receptor

| Structure (SMILES) | Ki [nM] |
| --- | --- |
| CN(Cc1ccccc1)C(=O)C(CCN1CCC2(CC1)OC(=O)Nc1ccc(F)cc12)c1ccc(Cl)c(Cl)c1 (centres unmarked) [Example 1, N-benzyl-2-(3,4-dichlorophenyl)-4-(6-fluoro-2-oxo-1,2-dihydro-1′H-spiro[3,1-benzoxazine-4,4′-piperidin]-1′-yl)-N-methylbutanamide hydrochloride] | 11.2 |
| CCN(Cc1ccccc1)C(=O)C(CCN1CCC2(CC1)OC(=O)Nc1ccc(F)cc12)c1ccc(Cl)c(Cl)c1 (centres unmarked) [Example 6, N-benzyl-2-(3,4-dichlorophenyl)-N-ethyl-4-(6-fluoro-2-oxo-1,2-dihydro-1′H-spiro[3,1-benzoxazine-4,4′-piperidin]-1′-yl)butanamide] | 62.8 |
| O=C1Nc2ccc(F)cc2C2(CCN(CCC(C(=O)NCc3ccc(Cl)cc3)c3ccc(Cl)c(Cl)c3)CC2)O1 (centres unmarked) [Example 8, N-(4-chlorobenzyl)-2-(3,4-dichlorophenyl)-4-(6-fluoro-2-oxo-1,2-dihydro-1′H-spiro[3,1-benzoxazine-4,4′-piperidin]-1′-yl)butanamide] | 17 |
| CCN(Cc1ccccc1F)C(=O)C(CCN1CCC2(CC1)OC(=O)Nc1ccc(F)cc12)c1ccc(Cl)c(Cl)c1 (centres unmarked) [Example 12, 2-(3,4-dichlorophenyl)-N-ethyl-N-(2-fluorobenzyl)-4-(6-fluoro-2-oxo-1,2-dihydro-1′H-spiro[3,1-benzoxazine-4,4′-piperidin]-1′-yl)butanamide] | 31.2 |
| CN(Cc1ccc(Cl)cc1)C(=O)C(CCN1CCC2(CC1)OC(=O)Nc1ccc(F)cc12)c1ccc(Cl)c(Cl)c1 (centres unmarked) [Example 15, N-(4-chlorobenzyl)-2-(3,4-dichlorophenyl)-4-(6-fluoro-2-oxo-1,2-dihydro-1′H-spiro[3,1-benzoxazine-4,4′-piperidin]-1′-yl)-N-methylbutanamide] | 3.7 |
| CN(Cc1ccccc1Cl)C(=O)C(CCN1CCC2(CC1)OC(=O)Nc1ccc(F)cc12)c1ccc(Cl)c(Cl)c1 (centres unmarked) [Example 17, N-(2-chlorobenzyl)-2-(3,4-dichlorophenyl)-4-(6-fluoro-2-oxo-1,2-dihydro-1′H-spiro[3,1-benzoxazine-4,4′-piperidin]-1′-yl)-N-methylbutanamide] | 6.7 |
| CCN(Cc1ccc(C)cc1)C(=O)C(CCN1CCC2(CC1)OC(=O)Nc1ccc(F)cc12)c1ccc(Cl)c(Cl)c1 (centres unmarked) [Example 18, 2-(3,4-dichlorophenyl)-N-ethyl-4-(6-fluoro-2-oxo-1,2-dihydro-1′H-spiro[3,1-benzoxazine-4,4′-piperidin]-1′-yl)-N-(4-methylbenzyl)butnamide] | 15.7 |
| CN(Cc1cccc(Cl)c1)C(=O)C(CCN1CCC2(CC1)OC(=O)Nc1ccc(F)cc12)c1ccc(Cl)c(Cl)c1 (centres unmarked) [Example 19, N-(3-chlorobenzyl)-2-(3,4-dichlorophenyl)-4-(6-fluoro-2-oxo-1,2-dihydro-1′H-spiro[3,1-benzoxazine-4,4′-piperidin]-1′-yl)-N-methylbutanamide] | 5.2 |
| CN(Cc1cccc(Cl)c1)C(=O)C(CCN1CCC2(CC1)OC(=O)Nc1ccc(F)cc12)c1ccc(F)cc1 (centres unmarked) [Example 25, N-(3-chlorobenzyl)-4-(6-fluoro-2-oxo-1,2-dihydro-1′H-spiro[3,1-benzoxazine-4,4′-piperidin]-1′-yl)-2-(4-fluorophenyl)-N-methylbutanamide] | 59.4 |
| CN(Cc1ccc(Cl)cc1)C(=O)C(CCN1CCC2(CC1)OC(=O)Nc1ccc(F)cc12)c1ccc(F)cc1 (centres unmarked) [Example 26, N-(4-chlorobenzyl)-4-(6-fluoro-2-oxo-1,2-dihydro-1′H-spiro[3,1-benzoxazine-4,4′-piperidin]-1′-yl)-2-(4-fluorophenyl)-N-methylbutanamide] | 38.3 |
| CN(Cc1ccccc1Cl)C(=O)C(CCN1CCC2(CC1)OC(=O)Nc1ccc(F)cc12)c1ccc(F)cc1 (centres unmarked) [Example 27, N-(2-chlorobenzyl)-4-(6-fluoro-2-oxo-1,2-dihydro-1′H-spiro[3,1-benzoxazine-4,4′-piperidin]-1′-yl)-2-(4-fluorophenyl)-N-methylbutanamide] | 38.5 |
| CCN(Cc1ccccc1)C(=O)C(CCN1CCC2(CC1)OC(=O)N(C)c1ccc(F)cc12)c1ccc(Cl)c(Cl)c1 (centres unmarked) [Example 29, N-benzyl-2-(3,4-dichlorophenyl)-N-ethyl-4-(6-fluoro-1-methyl-2-oxo-1,2-dihydro-1′H-spiro[3,1-benzoxazine-4,4′-piperidin]-1′-yl)-butanamide] | 6.7 |
| Cc1ccc(CNC(=O)C(CCN2CCC3(CC2)OC(=O)N(C)c2ccc(F)cc23)c2ccc(Cl)c(Cl)c2)cc1 (centres unmarked) [Example 31, 2-(3,4-dichlorophenyl)-4-(6-fluoro-1-methyl-2-oxo-1,2-dihydro-1′H-spiro[3,1-benzoxazine-4,4′-piperidin]-1′-yl)-N-(4-methylbenzyl)butanamide] | 5.8 |
| CN1C(=O)OC2(CCN(CCC(C(=O)NCc3ccccc3)c3ccc(Cl)c(Cl)c3)CC2)c2cc(F)ccc21 (centres unmarked) [Example 32, N-benzyl-2-(3,4-dichlorophenyl)-4-(6-fluoro-1-methyl-2-oxo-1,2-dihydro-1′H-spiro[3,1-benzoxazine-4,4′-piperidin]-1′-yl)-butanamide] | 3.9 |
| CN1C(=O)OC2(CCN(CCC(C(=O)NCc3ccc(S(C)(=O)=O)cc3)c3ccc(Cl)c(Cl)c3)CC2)c2cc(F)ccc21 (centres unmarked) [Example 33, 2-(3,4-dichlorophenyl)-4-(6-fluoro-1-methyl-2-oxo-1,2-dihydro-1′H-spiro[3,1-benzoxazine-4,4′-piperidin]-1′-yl)-N-[4-(methylsulfonyl)benzyl]butanamide] | 54.7 |
| CN1C(=O)OC2(CCN(CCC(C(=O)NCc3ccc(Cl)cc3)c3ccc(Cl)c(Cl)c3)CC2)c2cc(F)ccc21 (centres unmarked) [Example 34, N-(4-chlorobenzyl)-2-(3,4-dichlorophenyl)-4-(6-fluoro-1-methyl-2-oxo-1,2-dihydro-1′H-spiro[3,1-benzoxazine-4,4′piperidin]-1′-yl)-butanamide] | 3.3 |
| CCN(Cc1ccc(C)cc1)C(=O)C(CCN1CCC2(CC1)OC(=O)N(C)c1ccc(F)cc12)c1ccc(Cl)c(Cl)c1 (centres unmarked) [Example 39, 2-(3,4-dichlorphenyl)-N-ethyl-4-(6-fluoro-1-methyl-2-oxo-1,2-dihydro-1′H-spiro[3,1-benzoxazine-4,4′-piperidin]-1′-yl)-N-(4-methylbenzyl)butanamide] | 4.2 |

Source: patent publication US7470684B2, “Spiropiperidine derivatives as NK3 antagonists” (Hoffmann-La Roche Inc., priority 2007, dated 2008)
